Measurements published in US7390831B2, “Tetracyclic steroid derivatives useful as progesterone receptor modulators” (Janssen Pharmaceutica N.V., priority 2006, dated 2008).
pIC50: −log10 of the molar value. Where two headings read alike, the source gives them in different places.

What was measured:
[1] = tested on: T47D human breast cancer cells; experiment: T47D Human Breast Cancer Cells Assay (alkaline phosphatase, luminescence); type: cell-based
Procedure: T47D Human Breast Cancer Cells Assay
T47D human breast cancer cells were grown in RPMI medium without phenol red (Invitrogen) containing 10% (v/v) heat-inactivated fetal bovine serum (FBS; Hyclone), 1% (v/v) penicillin-streptomycin (Invitrogen), 1% (w/v) glutamine (Invitrogen), and […] insulin (Sigma). Incubation conditions were 37° C. in a humidified 5% (v/v) carbon dioxide environment.
The cells were plated in 96-well tissue culture plates at 10,000 cells per well in assay medium [RPMI medium without phenol red (Invitrogen) containing 5% (v/v) charcoal-treated FBS (Hyclone) and 1% (v/v) penicillin-streptomycin (Invitrogen)]. Two days later, the medium was decanted and test compound or control were added at a final concentration of 0.1% (v/v) dimethyl sulfoxide in fresh assay medium. Twenty-four hours later, an alkaline phosphatase assay was performed using a SEAP kit (BD Biosciences Clontech, Palo Alto, Calif.). Briefly, the medium was decanted and the cells were fixed for 30 minutes at room temperature with 5% (v/v) formalin (Sigma). The cells were washed once with room temperature Hank's buffered saline solution (Invitrogen). Equal volumes (0.05 mL) of 1× Dilution Buffer, Assay Buffer and 1:20 substrate/enhancer mixture were then added. After 1 hour incubation at room temperature in the dark, the lysate was transferred to a white 96-well plate (Dynex) and luminescence was read using a LuminoSkan Ascent (Thermo Electron, Woburn, Mass.).
(§1) Representative compounds of the present invention were tested according to the procedures described in Examples 45 and 46 above, with results as listed in Table 2 below.

[2] = tested on: A549 Human lung carcinoma cells; experiment: A549 Human Lung Cell Assay (transfected cells, dexamethasone challenge, luciferase read-out); type: cell-based; conditions: test compound 10 min then dexamethasone challenge, 24 h, Luc-assay, read-out: A 549 IC50
Procedure: A549Human Lung Cell Assay
A549Human lung carcinoma cells were grown in F-12K Nutrient Mixture containing 10% (v/v) fetal bovine serum (FBS; Invitrogen), 2 mM glutamine and 0.15% sodium dicarbonate (Invitrogen).
A549 cells were split 1 to 3 in 175 cm tissue culture flask. The cells were incubated at 37° C. in CO2 incubator until the cells were 95% confluent (typically 24-30 hours).
The following solutions were prepared in sterile tubes: (a) Solution A 1.5 μg/ml of DNA in 8.5 ml OPTI-MEM I Reduced Serum Medium. (GIBCO cat# 31985) and (b) Solution B: 6 μl/ml of DMRIE-C Reagent into […] OPTI-MEM I. The two solutions were combined and mixed gently, then incubated at room temperature for 40 minutes.
The A549 cells prepared above were washed with […] of OPTI-MEM I. The medium was removed and 17 ml of the lipid-DNA complex solution was overlayed onto cells. The cells ere then incubated for 16 h at 37° C. in CO2 incubator. The DNA-containing medium was removed and 30 ml of growth medium was added. (5% Charcoal treated FBS) After 5-6 h, the cells were seeded in a 96 well plate and the cells incubated overnight at 37° C. in CO2 incubator.
To each well was then added 5 μl of test compounds and the cells incubated at 37° C. for 10 min. 5 μL of dexamathasone (CAS [50-02-2]), was then added to each well for challenger and the cells incubated at 37° C. in CO2 incubator for 24 h. 100 μl of Luc-assay buffer was then added into each cell well and the cells incubated for 30 min at room temperature. A 150 μL sample from each well was then transferred into a DYNEX Microlitel plate and read on Top-counter.
as §1

[3] = T47D cells, 24 h with test compound, alkaline phosphatase assay (SEAP kit); read-out: T47D IC50
[4] = Homo sapiens, T47D, 24 h, read-out: T47D IC50 (nM), T47D cells, 24 h with test compound, alkaline phosphatase assay (SEAP kit)
[5] = read-out: T47D IC50; T47D cells, 24 h with test compound, alkaline phosphatase assay (SEAP kit)

Molecule | IC50 [1, 4] | pIC50 ([2]; Homo sapiens, A549, A549 cells) | further results
10-(4-Dimethylamino-phenyl)-1-ethynyl-1-hydroxy-12a-methyl-2,3,3a,3b,4,5,9,10,12,12a-decahydro-1H,8H-11-oxa-naphtho[2,1-e]azulen-7-one [Compound 3] |  |  | pIC50 [1, 3]: 8.15; pIC50 ([2]; A549 cells): 6.88
C=CC[C@]1(O)CCC2C3CCC4=CC(=O)CCC4=C3[C@@H](c3ccc(OC)cc3)OC[C@@]21C (stereo partly shown) [Compound 17, 1-Allyl-1-hydroxy-10-(4-methoxy-phenyl)-12a-methyl 2,3,3a,3b,4,5,9,10,12,12a-decahydro-1H,8H-11-oxa-naphtho[2,1-e]azulen-7-one] | > 1000 nM | 6.94 | 
COc1ccc([C@H]2OC[C@@]3(C)C(CC[C@@]3(O)C#Cc3ccc(C(F)(F)F)cc3)C3CCC4=CC(=O)CCC4=C32)cc1 (stereo partly shown) [Compound 21, 1-Hydroxy-10-(4-methoxy-phenyl)-12a-methyl-1-(4-trifluoromethylphenylethynyl)-2,3,3a,3b,4,5,9,10,12,12a-decahydro-1H,8H-11-oxa-naphtho[2,1-e]azulen-7-one] |  |  | pIC50 [1, 5]: < 6.00; pIC50 ([2]; A549 cells): < 6.00
1-Hydroxy-1-isopropenyl-10-(4-methanesulfonyl-phenyl)-12a-methyl-2,3,3a,3b,4,5,9,10,10,12,12a-decahydro-1H,8H-11-oxa-naphtho[2,1-e]azulen-7-one [Compound 30] |  |  | pIC50 ([2]; A549 cells): < 6.00
COc1ccc([C@H]2OC[C@@]3(C)C(CC[C@@]3(O)C#CC(F)(F)F)C3CCC4=CC(=O)CCC4=C32)cc1 (stereo partly shown) [Compound 19, 1-Hydroxy-10-(4-methoxy-phenyl)-12a-methyl-1-trifluoroprop-1-ynyl-2,3,3a,3b,4,5,9,10,12,12a-decahydro-1H,8H-11-oxa-naphtho[2,1-e]azulen-7-one] | > 1000 nM | < 5.52 | 
COc1ccc([C@H]2OC[C@@]3(C)C(CC[C@@]3(O)C#Cc3ccccc3)C3CCC4=CC(=O)CCC4=C32)cc1 (stereo partly shown) [Compound 16, 1-Hydroxy-10-(4-methoxy-phenyl)-12a-methyl-1-phenylethynyl-2,3,3a,3b,4,5,9,10,12,12a-decahydro-1H,8H-11-oxa-naphtho[2,1-e]azulen-7-one] |  |  | pIC50 [1, 5]: < 6.00; pIC50 ([2]; A549 cells): < 5.52
CC#C[C@]1(O)CCC2C3CCC4=CC(=O)CCC4=C3[C@@H](c3ccc(OC)cc3)OC[C@@]21C (stereo partly shown) [Compound 27] |  |  | pIC50 ([2]; A549 cells): 7.38
CC#C[C@]1(O)CCC2C3CCC4=CC(=O)CCC4=C3[C@@H](c3ccc(OC)cc3)OC[C@@]21C (stereo partly shown) [Compound 14, 1-Hydroxy-10-(4-methoxy-phenyl)-12a-methyl-1-prop-1-ynyl-2,3,3a,3b,4,5,9,10,12,12a-decahydro-1H,8H-11-oxa-naphtho[2,1-e]azulen-7-one] | > 1000 nM | 7.34 | 
CN(C)c1ccc(C2OCC3(C)C(CCC3(O)C(F)(F)C(F)(F)F)C3CCC4=CC(=O)CCC4=C23)cc1 (stereo not shown) [Compound 37, 10-(4-Dimethylamino-phenyl)-1-hydroxy-12a-methyl-1-penta fluoroethyl 2,3,3a,3b4,5,9,10,12,12a-decahydro-1H,8H-11-oxa-naphtho[2,1-e]azulen-7-one] |  |  | pIC50 [1, 3]: 7.38
COc1ccc([C@@H]2OC[C@@]3(C)C(CC[C@@]3(O)C#CC(F)(F)F)C3CCC4=CC(=O)CCC4=C32)cc1 (stereo partly shown) [Compound 20, 1-Hydroxy-10-[…]-(4-methoxy-phenyl)-12a-methyl-1-trifluoroprop-1-ynyl-2,3,3a,3b,4,5,9,10,12,12a-decahydro-1H,8H-11-oxa-naphtho[2,1-e]azulen-7-one] | > 1000 nM | < 5.52 | 
C#C[C@]1(O)CCC2C3CCC4=CC(=O)CCC4=C3[C@@H](c3ccc(OC)cc3)OC[C@@]21C (stereo partly shown) [Compound 12, 1-Ethynyl-1-hydroxy-10-(4-methoxy-phenyl)-12a-methyl-2,3,3a,3b,4,5,9,10,12,12a-decahydro-1H,8H-11-oxa-naphtho[2,1-e]azulen-7-one] | > 1000 nM | 6.93 | 
CN(C)c1ccc([C@H]2OC[C@@]3(C)C(CC[C@@]3(O)C#Cc3cc(F)cc(F)c3)C3CCC4=CC(=O)CCC4=C32)cc1 (stereo partly shown) [Compound 36, 1-(3,5-Difluoro-phenylethynyl)-10-(4-dimethylamino-phenyl)-1-hydroxy-12a-methyl-2,3,3a,3b,4,5,9,10,12,12a-decahydro-1H,8H-11-oxa-naphtho[2,1-e]azulen-7-one] | 160 nM |  | 
C=C(CCO)[C@]1(O)CCC2C3CCC4=CC(=O)CCC4=C3[C@@H](c3ccc(OC)cc3)OC[C@@]21C (stereo partly shown) [Compound 24] | 176 nM | 6.11 | pIC50 [1, 5]: 6.89
CC#C[C@]1(O)CCC2C3CCC4=CC(=O)CCC4=C3[C@@H](c3ccc(N(C)C)cc3)OC[C@@]21C (stereo partly shown) [Compound 7, 10-(4-Dimethylamino-phenyl)-1-hydroxy-12a-methyl-1-prop-1-ynyl-2,3,3a,3b,4,5,9,10,12,12a-decahydro-1H,8H-11-oxa-naphtho[2,1-e]azulen-7-one] | 116 nM | 7.79 | 
CN(C)c1ccc([C@H]2OC[C@@]3(C)C(CC[C@@]3(O)C#Cc3ccccc3)C3CCC4=CC(=O)CCC4=C32)cc1 (stereo partly shown) [Compound 31, 10-(4-Dimethylamino-phenyl)-1-hydroxy-12a-methyl-1-phenyl ethynyl-2,3,3a,3b,4,5,9,10,12,12a-decahydro-1H,8H-11-oxa-naphtho[2,1-e]azulen-7-one] | 78 nM |  | 
CN(C)c1ccc([C@H]2OC[C@@]3(C)C(CC[C@@]3(O)C#Cc3ccccc3F)C3CCC4=CC(=O)CCC4=C32)cc1 (stereo partly shown) [Compound 32, 10-(4-Dimethylamino-phenyl)-1-(2-fluoro-phenylethynyl)-1-hydroxy-12a-methyl-2,3,3a,3b,4,5,9,10,12,12a-decahydro-1H,8H-11-oxa-naphtho[2,1-e]azulen-7-one] | 48 nM |  | 
C=C1CCOC12CC[C@H]1[C@@H]3CCC4=CC(=O)CCC4=C3[C@@H](c3ccc(N(C)C)cc3)OC[C@@]12C (stereo partly shown) [Compound 38] | 1.1 nM |  | 
C=CC(=O)[C@]1(O)CCC2C3CCC4=CC(=O)CCC4=C3[C@@H](c3ccc(SC)cc3)OC[C@@]21C (stereo partly shown) [Compound 26] |  | 5.64 | 
COc1ccc([C@H]2OC[C@]3(C)C(=O)CCC3C3CCC4=CC(=O)CCC4=C32)cc1 (stereo partly shown) [Compound 28, 10-(4-Methoxy-phenyl)-12a-methyl-2,3,3a,3b,4,5,9,10,12,12a-decahydro-8H-11-oxa-naphtho[2,1-e]azulene-1,7-dione] |  | < 5.52 | 
10-(4-Dimethylamino-phenyl)-1-(3-fluoro-phenylethynyl)-1-hydroxy-12a-methyl-2,3,3a,3b,4,5,9,10,12,12 a-decahydro-1H,8H-11-oxa-naphtho[2,1-e]azulen-7-one [Compound 34] |  |  | pIC50 [1, 3]: 6.91
COc1ccc([C@@H]2OC[C@]3(C)C(=O)CCC3C3CCC4=CC(=O)CCC4=C32)cc1 (stereo partly drawn) [Compound 29, 10-α-(4-Methoxy-phenyl)-12a-methyl-2,3,3a,3b,4,5,9,10,12,12a-decahydro-8H-11-oxa-naphtho[2,1-e]azulene-1,7-dione] |  | < 5.52 | 
CSc1ccc([C@H]2OC[C@]3(C)C(=O)CCC3C3CCC4=CC(=O)CCC4=C32)cc1 (stereo partly shown) [Compound 25, 12a-Methyl-10-(4-methylsulfanyl-phenyl) 2,3,3a,3b,4,5,9,10,12,12a-decahydro-8H-11-oxa-naphtho[2,1-e]azulene-1,7-dione] |  | 5.88 | 
10-(4-Dimethylamino-phenyl)-1-(4-fluoro-phenylethynyl)-1-hydroxy-12a-methyl-2,3,3a,3b,4,5,9,10,12,12a-decahydro-1H,8H-11-oxa-naphtho[2,1-e]azulen-7-one [Compound 35] |  |  | pIC50 [1, 3]: 7.77
